Source: patent publication US6531475B1, “CRF receptor antagonists and methods relating thereto” (Neurocrine Biosciences, Inc., priority 1998, dated 2003)
Read-outs that look alike come from different tables or passages of the source.

Target: T1, human CRF receptors (Homo sapiens, UniProt P34998)
T1 construct: expressed in transfected cells; stably transfected cells, used as membrane suspension
T1 sequence (P34998 24-415): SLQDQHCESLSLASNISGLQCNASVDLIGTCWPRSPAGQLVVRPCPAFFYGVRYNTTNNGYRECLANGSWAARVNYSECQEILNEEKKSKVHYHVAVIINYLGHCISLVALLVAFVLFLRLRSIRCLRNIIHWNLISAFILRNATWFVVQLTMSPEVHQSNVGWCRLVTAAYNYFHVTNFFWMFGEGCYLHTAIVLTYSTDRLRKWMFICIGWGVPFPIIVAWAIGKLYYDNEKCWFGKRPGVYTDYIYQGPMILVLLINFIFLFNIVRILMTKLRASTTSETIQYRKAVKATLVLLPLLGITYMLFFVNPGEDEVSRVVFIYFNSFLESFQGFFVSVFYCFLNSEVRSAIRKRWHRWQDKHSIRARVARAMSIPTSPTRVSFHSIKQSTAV
Assay: CRF receptor radioligand binding assay (displacement of [125I]tyrosine-ovine CRF)
Conditions: cells stably transfected with human CRF receptors, read-out: Ki (CRF receptor binding affinity)
Excerpt: The effectiveness of a compound as a CRF receptor antagonist may be determined by various assay methods. Suitable CRF antagonists of this invention are capable of inhibiting the specific binding of CRF to its receptor and antagonizing activities associated with CRF. A compound of structure (I) may be assessed for activity as a CRF antagonist by one or more generally accepted assays for this purpose, including (but not limited to) the assays disclosed by DeSouza et al. (J. Neuroscience 7:88, 1987) and Battaglia et al. (Synapse 1:572, 1987). […] CRF receptor affinity may be determined by binding studies that measure the ability of a compound to inhibit the binding of a radiolabeled CRF (e.g., [^125I]tyrosine-CFR) to its receptor (e.g., receptors prepared from rat cerebral cortex membranes). The radioligand binding assay described by DeSouza et al. (supra, 1987) provides an assay for determining a compound's affinity for the CRF receptor. Such activity is typically calculated from the IC50 as the concentration of a compound necessary to displace 50% of the radiolabeled ligand from the receptor, and is reported as a “Ki” value calculated by the following equation: [formula]
where L=radioligand and KD=affinity of radioligand for receptor (Cheng and Prusoff, Biochem. Pharmacol. 22:3099, 1973).
With reference to CRF receptor binding affinities, CRF receptor antagonists of this invention have a Ki of less than 10 μM. […] As set forth in greater detail below, the Ki values of representative compounds of this invention were assayed by the methods set forth in Example 9.
The compounds of this invention may be evaluated for binding activity to the CRF receptor by a standard radioligand binding assay as generally described by DeSouza et al. (J. Neurosci. 7:88-100, 1987). By utilizing various radiolabeled CRF ligands, the assay may be used to evaluate the binding activity of the compounds of the present invention with any CRF receptor subtype. Briefly, the binding assay involves the displacement of a radiolabeled CRF ligand from the CRF receptor.
More specifically, the binding assay is performed in 1.5 ml Eppendorf tubes using approximately 1×10^6 cells per tube stably transfected with human CRF receptors. Each tube receives about 0.1 ml of assay buffer (e.g., Dulbecco's phosphate buffered saline, 10 mM magnesium chloride, 20 μM bacitracin) with or without unlabeled sauvagine, urotensin I or CRF (final concentration, 1 μM) to determine nonspecific binding, 0.1 ml of […] tyrosine-ovine CRF (final concentration ˜200 pM or approximately the KD as determined by Scatchard analysis) and 0.1 ml of a membrane suspension of cells containing the CRF receptor. The mixture is incubated for 2 hours at 22° C. followed by the separation of the bound and free radioligand by centrifugation. Following two washes of the pellets, the tubes are cut just above the pellet and monitored in a gamma counter for radioactivity at approximately 80% efficiency. All radioligand binding data may be analyzed using the non-linear least-square curve-fitting program LIGAND of Munson and Rodbard (Anal. Biochem. 107:220, […]).

| Structure (SMILES) | Ki (more preferred compounds) | Ki (preferred compounds) |
| --- | --- | --- |
| Cc1cc2c3c(n1)c(-c1ccc(Cl)cc1Cl)nn3CCN2C1CCCCC1C (stereo not drawn) [I-2a-6] | < 250 nM | – |
| C=C1CN(C(CCC)CCC)c2nc(C)nc3c2c1cn3-c1ccc(Cl)cc1Cl [I-4b-1] | < 250 nM | < 1000 nM |
| CCCC(CCC)N1CC(C)c2cn(-c3ccc(Cl)cc3Cl)c3nc(C)nc1c23 (stereo not drawn) [I-4b-2] | < 250 nM | < 1000 nM |

Other lines, results leading:

| Ki (more preferred compounds) | Ki (preferred compounds) | Structure (SMILES) |
| --- | --- | --- |
| < 250 nM | < 1000 nM | Cc1cc2c3c(n1)c(-c1ccc(Cl)cc1Cl)nn3CCN2C1CCCc2ccccc21 (stereo not drawn) [I-2a-8] |
| < 250 nM | < 1000 nM | Cc1cc2c3c(n1)c(-c1ccc(Cl)cc1Cl)nn3CCN2C(C)CCCC(C)C (stereo not drawn) [I-2a-9] |
| < 250 nM | – | CC[C@H]1Cn2nc(-c3ccc(C(F)(F)F)cc3OC)c3nc(C)cc(c32)N1Cc1ccc(F)cc1 [I-2a-76] |
| – | < 1000 nM | CC[C@H]1Cn2nc(-c3ccc(C(C)C)cc3C(F)(F)F)c3nc(C)cc(c32)N1CC(C)C [I-2a-173] |
| – | < 1000 nM | COc1cc(C(F)(F)F)ccc1-c1nn2c3c(cc(C)nc13)N(CCC(C)C)[C@@H](C)C2 [i-2a-92] |
